Patent publication US20190223437A1, “ACTIVE COMPOUND COMBINATIONS COMPRISING A 5-SUBSTITUTED IMIDAZOLE DERIVATIVE” (BAYER CROPSCIENCE AKTIENGESELLSCHAFT, priority 2016, published 2019)
“And” between values parts separate entries of the source, which are not always exact repeats. Equal entries are not always repeated.

Tests used:
Alternaria solani = test: Example A: in vivo preventive test on Alternaria test (tomatoes); settings: compound alone, evaluated 3 days after inoculation
Experimental: (§1) The test is evaluated 3 days after the inoculation.

[1] = test system: causal agent of soybean rust (Phakopsora pachyrhizi); test: Example C: in vivo preventive test on Phakopsora test (soybeans); settings: compound alone
Pyrenophora oryzae = test: Example F: in vitro-Test with Pyrenophora oryzae; format: cell-based; settings: compound alone
[2] = Example G: in vivo ecotoxicity screening test on fish (Danio rerio); settings: Danio rerio, in vivo, other: exposure of embryos in water containing the compound
Experimental: with ECxi the Effect Concentration (EC) of each chemical i (in ppm) causing x % effect on the ecotoxicity test endpoint.
For each compound combination, the predicted ECx value is calculated. It is then compared to an experimentally measured value. The ratio of predicted versus measured effect for the combination (thereafter called the Model Deviation Ratio or MDR) is then calculated.
The environmental effect of the compound combinations was measured experimentally in laboratory ecotoxicity screening studies with fish (Danio rerio). […] Mortality was recorded after 48 h and 96 h for each tested concentration and a reference control. […] Then, the MDR values were calculated.
This concentrate is then diluted with water to the desired a.i. concentration, leading to a maximal solvent concentration of 0.5%. by weight The compounds alone and the combinations were tested for five increasing concentrations comprised between 0.01 and 1000 ppm (mg/1) a.i., (e.g. 0.1, 1.0, 10 and 100 ppm a.i). For the combinations, compounds A and B were mixed in a weight ratio of 5:1 to 1:5 and five increasing concentrations were tested for each ratio.

[3] = test system: causal agent of apple scab (Venturia inaequalis); test: Example E: in vivo preventive test on Venturia test (apples); settings: compound alone
Septoria tritici = test: Example F: in vitro-Test with Septoria tritici; format: cell-based; settings: compound alone
Sphaerotheca fuliginea = test: Example D: in vivo preventive test on Sphaerotheca test (cucumbers); settings: compound alone
Colletotrichum coccodes = test: Example B: in vivo preventive test on Colletotrichum test (tomatoes); settings: compound alone
Experimental: as §1

Compound: propineb [5.018 propineb]
- Efficacy in % found (Alternaria solani; 12.5 ppm a.i.): 0%
- Efficacy in % found (Alternaria solani; 25 ppm a.i.): 8%
- Efficacy in % found (Alternaria solani; 50 ppm a.i.): 50%
- Efficacy in % found ([1]; 12.5 ppm a.i.): 0%
- Efficacy in % found ([1]; 25 ppm a.i.): 0%
- Efficacy in % found ([1]; 50 ppm a.i.): 40%

Compound: COc1ccnc(C(=O)N[C@H]2COC(=O)[C@H](Cc3ccccc3)[C@@H](OC(=O)C(C)C)[C@H](C)OC2=O)c1OCOC(=O)C(C)C [Example 3.025, (3S,6S,7R,8R)-8-benzyl-3-[({3-[(isobutyryloxy)methoxy]-4-methoxypyridin-2-yl}carbonyl)amino]-6-methyl-4,9-dioxo-1,5-dioxonan-7-yl 2-methylpropanoate]
- Efficacy in % found ([1]; 5 ppm a.i.): 0%
- Efficacy in % found ([1]; 10 ppm a.i.): 30%
- Efficacy in % found ([1]; 20 ppm a.i.): 35%
- Efficacy % (Pyrenophora oryzae; 4 ppm): 0%
- Efficacy % (Pyrenophora oryzae; 20 ppm): 0%
- LC50 at 48 h [2]: 2.31 µg/mL
- LC50 at 96 h [2]: 1.87 µg/mL

Compound: Cc1nn(C)c(F)c1C(=O)Nc1ccccc1C(C)CC(C)C (stereo not drawn) [2.017 penflufen]
- Efficacy in % found ([1]; 5 ppm a.i.): 0%
- Efficacy in % found ([1]; 10 ppm a.i.): 8%
- Efficacy in % found ([1]; 20 ppm a.i.): 60%
- Efficacy in % found ([3]; 5 ppm a.i.): 18%
- Efficacy in % found ([3]; 10 ppm a.i.): 26%
- Efficacy in % found ([3]; 20 ppm a.i.): 23%

Compound: O=C(Cc1ccccc1)N/C(=N\OCC1CC1)c1c(C(F)(F)F)ccc(F)c1F [15.008 cyflufenamid]
- Efficacy in % found ([3]; 1 ppm a.i.): 0%
- Efficacy in % found ([3]; 2 ppm a.i.): 0%
- Efficacy in % found ([3]; 4 ppm a.i.): 8%

Compound: CC1CC(C)(C)c2cccc(NC(=O)c3cn(C)nc3C(F)F)c21 (stereo not drawn) [Example 2.027, 3-(difluoromethyl)-1-methyl-N-(1,1,3-trimethyl-2,3-dihydro-1H-inden-4-yl)-1H-pyrazole-4-carboxamide, reference compound]
- Efficacy in % found ([1]; 1 ppm a.i.): 15%
- Efficacy in % found ([1]; 2 ppm a.i.): 85%
- Efficacy in % found ([1]; 4 ppm a.i.): 96%
- Efficacy % (Pyrenophora oryzae; 0.8 ppm): 55%
- Efficacy % (Pyrenophora oryzae; 4 ppm): 81%
- Efficacy in % found ([3]; 1 ppm a.i.): 8%
- Efficacy in % found ([3]; 2 ppm a.i.): 8%
- Efficacy in % found ([3]; 4 ppm a.i.): 74%
- LC50 at 48 h [2]: 1.85 µg/mL
- LC50 at 96 h [2]: 1.74 µg/mL

Compound: CCCOc1nc2ccc(I)cc2c(=O)n1CCC [13.004 proquinazid]
- Efficacy % (Septoria tritici; 4 ppm): 0%
- Efficacy % (Septoria tritici; 20 ppm): 37% and 40%
- Efficacy in % found (Sphaerotheca fuliginea; 25 ppm a.i.): 90%
- Efficacy in % found (Sphaerotheca fuliginea; 50 ppm a.i.): 100%
- Efficacy in % found (Sphaerotheca fuliginea; 100 ppm a.i.): 100%

Compound: CON=C(C(=O)OC)c1ccccc1CON=C(C)c1cccc(C(F)(F)F)c1 [3.020 trifloxystrobin]
- Efficacy % (Pyrenophora oryzae; 0.04 ppm): 0%
- Efficacy % (Pyrenophora oryzae; 0.2 ppm): 0%
- Efficacy % (Pyrenophora oryzae; 1 ppm): 0%

Compound: CC(C)C1CCC(Cc2ccc(Cl)cc2)C1(O)Cn1cncn1 (stereo not drawn) [1.012 ipconazole]
- Efficacy in % found (Sphaerotheca fuliginea; 2.5 ppm a.i.): 0%
- Efficacy in % found (Sphaerotheca fuliginea; 5 ppm a.i.): 0%
- Efficacy in % found (Sphaerotheca fuliginea; 10 ppm a.i.): 0%

Compound: CON=C(C(=O)OC)c1ccccc1CON=C(C)c1cccc(C(F)(F)F)c1 [15.047 trifloxystrobin]
- Efficacy % (Pyrenophora oryzae; 0.04 ppm): 17%
- Efficacy % (Pyrenophora oryzae; 0.2 ppm): 86%

Compound: N#Cc1c(Cl)c(Cl)c(Cl)c(C#N)c1Cl [5.004 chlorothalonil, chlorothalonil]
- Efficacy in % found (Colletotrichum coccodes; 12.5 ppm a.i.): 0%
- Efficacy in % found (Colletotrichum coccodes; 25 ppm a.i.): 0%
- Efficacy in % found (Colletotrichum coccodes; 50 ppm a.i.): 0%
- Efficacy in % found (Alternaria solani; 12.5 ppm a.i.): 0%
- Efficacy in % found (Alternaria solani; 25 ppm a.i.): 0%
- Efficacy in % found (Alternaria solani; 50 ppm a.i.): 15%
- Efficacy in % found ([1]; 12.5 ppm a.i.): 0%
- Efficacy in % found ([1]; 25 ppm a.i.): 0%
- Efficacy in % found ([1]; 50 ppm a.i.): 30%
